What was measured:
Format in all cases: nucleic-acid assay
[1] = test system: Nucleic Acid; assay: Binding affinity to Doubly nicked dumbbell DNA 5'-TCGAACGC/iSp18/GCTG/3Phos/-3' at 1 mM compound concentration and pH 6
[2] = test system: Nucleic Acid; assay: Binding affinity to Doubly nicked dumbbell DNA 5'-TCGAACGC/iSp18/GCTG/3Phos/-3' at 1.9 mM DNA concentration and pH 6
[3] = test system: Nucleic Acid; assay: Binding affinity to Doubly nicked dumbbell DNA 5'-TCGAACGC/iSp18/GCTG/3Phos/-3' at 1 mM compound concentration and pH 8.6
[4] = test system: Nucleic Acid; assay: Binding affinity to Doubly nicked dumbbell DNA 5'-TCGAACGC/iSp18/GCTG/3Phos/-3' at 1 mM DNA concentration and pH 8.4
[5] = test system: Nucleic Acid; assay: Binding affinity to Doubly nicked dumbbell DNA 5'-TCGAACGC/iSp18/GCTG/3Phos/-3' at 1 mM DNA concentration and pH 8.6
[6] = test system: Nucleic Acid; assay: Binding affinity to Doubly nicked dumbbell DNA 5'-TCGAACGC/iSp18/GCTG/3Phos/-3' at 1 mM DNA concentration and pH 9.2
[7] = test system: Nucleic Acid; assay: Binding affinity to Doubly nicked dumbbell DNA 5'-TCGAACGC/iSp18/GCTG/3Phos/-3' at 1.4 mM compound concentration and pH 9.2
[8] = test system: Nucleic Acid; assay: Binding affinity to Doubly nicked dumbbell DNA 5'-TCGAACGC/iSp18/GCTG/3Phos/-3' at 1.4 mM compound concentration and pH 8.4

| Structure (SMILES) | Ka [1] [mM⁻¹] | Ka [2] [mM⁻¹] | Ka [3] [mM⁻¹] | Ka [4] [mM⁻¹] | Ka [5] [mM⁻¹] | Ka [6] [mM⁻¹] | Ka [7] [mM⁻¹] | Ka [8] [mM⁻¹] |
| --- | --- | --- | --- | --- | --- | --- | --- | --- |
| CN(C)Cc1c(O)c(CN(C)C)c2occ(-c3ccc(O)cc3)c(=O)c2c1O | 0.5 | 0.71 |  |  |  |  |  |  |
| O=c1c(-c2ccc(O)cc2)coc2cc(O)cc(O)c12 |  |  | 0.38 | 0.57 | 0.77 | 0.31 | 0.17 | 0.23 |
